Experimental data taken from article PMC6136245 (Bioorganic & medicinal chemistry letters, 2013).

What was measured:
HCV NS3 helicase (NS3h) [1] = target: T1, HCV NS3 helicase (NS3h) (Hepacivirus hominis (Hepatitis C virus), UniProt P29846); assay: HCV helicase unwinding assay, RNA substrate; type: biochemical
HCV NS3 helicase (NS3h) [2] = target: T1, HCV NS3 helicase (NS3h); assay: HCV helicase unwinding assay, DNA substrate; type: biochemical
[3] = test system: EcoRI-digested pT7-7 plasmid; assay: Gel shift assay with plasmid; type: binding
JEV helicase = JEV helicase (Japanese encephalitis virus, UniProt P27395); assay: JEV helicase inhibition; type: biochemical
DENV helicase = DENV helicase (Dengue virus type 2, UniProt P29990); assay: DENV helicase inhibition; type: biochemical
Chain of DENV helicase (P29990 1476-2093): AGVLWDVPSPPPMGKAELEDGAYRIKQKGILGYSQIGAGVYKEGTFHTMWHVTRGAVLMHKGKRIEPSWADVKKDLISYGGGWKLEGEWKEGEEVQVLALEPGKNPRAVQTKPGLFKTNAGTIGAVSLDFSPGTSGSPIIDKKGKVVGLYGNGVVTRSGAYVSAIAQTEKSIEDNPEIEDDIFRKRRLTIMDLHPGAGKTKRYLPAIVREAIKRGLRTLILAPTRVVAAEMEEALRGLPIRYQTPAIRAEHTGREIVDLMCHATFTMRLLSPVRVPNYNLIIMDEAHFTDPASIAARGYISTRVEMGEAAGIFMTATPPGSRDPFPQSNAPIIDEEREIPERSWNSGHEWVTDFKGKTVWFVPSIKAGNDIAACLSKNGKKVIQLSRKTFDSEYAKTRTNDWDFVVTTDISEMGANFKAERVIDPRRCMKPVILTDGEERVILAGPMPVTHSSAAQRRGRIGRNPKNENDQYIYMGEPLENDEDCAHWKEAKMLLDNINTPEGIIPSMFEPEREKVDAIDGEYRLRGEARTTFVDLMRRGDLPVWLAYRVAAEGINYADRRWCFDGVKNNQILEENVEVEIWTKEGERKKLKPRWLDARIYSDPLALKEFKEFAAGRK

T1 sequence (P29846 1192-1657): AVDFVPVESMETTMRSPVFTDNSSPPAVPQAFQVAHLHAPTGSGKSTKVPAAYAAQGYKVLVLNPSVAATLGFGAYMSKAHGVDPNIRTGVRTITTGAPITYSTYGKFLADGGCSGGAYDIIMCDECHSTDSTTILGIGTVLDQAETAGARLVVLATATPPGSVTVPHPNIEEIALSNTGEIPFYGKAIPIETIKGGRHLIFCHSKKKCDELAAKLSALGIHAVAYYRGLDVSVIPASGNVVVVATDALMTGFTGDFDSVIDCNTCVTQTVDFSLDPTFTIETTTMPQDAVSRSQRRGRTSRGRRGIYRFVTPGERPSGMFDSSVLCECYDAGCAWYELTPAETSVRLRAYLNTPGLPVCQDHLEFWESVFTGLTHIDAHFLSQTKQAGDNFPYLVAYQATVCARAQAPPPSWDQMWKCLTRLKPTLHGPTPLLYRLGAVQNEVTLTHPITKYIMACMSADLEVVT
Chain of JEV helicase (P27395 1505-2123): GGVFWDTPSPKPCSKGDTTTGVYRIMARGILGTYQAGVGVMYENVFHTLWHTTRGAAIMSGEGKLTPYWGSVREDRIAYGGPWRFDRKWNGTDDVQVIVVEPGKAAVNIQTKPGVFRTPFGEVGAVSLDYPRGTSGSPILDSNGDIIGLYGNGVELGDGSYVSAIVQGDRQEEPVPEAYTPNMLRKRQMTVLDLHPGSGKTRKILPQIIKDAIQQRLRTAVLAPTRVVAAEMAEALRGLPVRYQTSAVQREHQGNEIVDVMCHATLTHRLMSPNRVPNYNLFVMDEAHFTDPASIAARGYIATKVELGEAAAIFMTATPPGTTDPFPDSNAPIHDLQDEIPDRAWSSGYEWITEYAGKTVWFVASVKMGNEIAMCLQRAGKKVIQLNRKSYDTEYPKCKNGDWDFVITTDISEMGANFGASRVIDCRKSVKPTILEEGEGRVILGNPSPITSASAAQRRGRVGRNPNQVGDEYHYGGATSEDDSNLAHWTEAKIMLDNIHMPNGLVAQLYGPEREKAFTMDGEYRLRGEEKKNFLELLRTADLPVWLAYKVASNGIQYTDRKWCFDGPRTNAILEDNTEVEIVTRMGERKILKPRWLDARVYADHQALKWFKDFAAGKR

Structure (SMILES) | IC50 (HCV NS3 helicase (NS3h) [1]) [µM] | IC50 (HCV NS3 helicase (NS3h) [2]) [µM] | Effect on gel mobility of plasmid [3] | JEV helicase inhibition, in words (JEV helicase) | DENV helicase inhibition, in words (DENV helicase) | HCV helicase inhibition, in words (HCV NS3 helicase (NS3h) [1]; RNA substrate) | HCV helicase inhibition, in words (HCV NS3 helicase (NS3h) [2]; DNA substrate)
COC(=O)c1cccc2oc(-c3ccccc3O)nc12 [Compound 1] | > 1800 | > 1800 |  |  |  |  | 
O=C(O)c1cccc2oc(-c3ccccc3O)nc12 [Compound 2] | > 1800 | > 1800 |  |  |  |  | 
CNC(=O)c1cccc2oc(-c3ccccc3O)nc12 [Compound 3] | > 1800 | > 1800 |  |  |  |  | 
COC(=O)c1cccc2oc(-c3ccc4c(OCc5ccccc5)cccc4c3O)nc12 [Compound 5] |  |  | do not affect | no inhibition | no inhibition |  | 
COC(=O)c1cccc2oc(-c3ccc4ccc(OCc5ccccc5)cc4c3O)nc12 [Compound 6] |  |  | do not affect | no inhibition | no inhibition |  | 
COC(=O)c1cccc2oc(-c3cccc4oc(-c5ccccc5O)nc34)nc12 [UK-1] | > 1200 |  |  |  |  | no inhibition | weak inhibition
